Assay results taken from patent publication US20130245081A1, “Compositions and Methods for Treating Amyotrophic Lateral Sclerosis” (priority 2009, published 2013).

Assays:
[1] = tested on: patients with ALS; conditions: Part 1
[2] = tested on: rodents; test: Single dose toxicity after oral administration, rodents; conditions: in vivo
[3] = tested on: monkeys; conditions: single oral dose; cited from earlier work
[4] = tested on: rodents; conditions: single oral dose; cited from earlier work
[5] = tested on: dogs; conditions: single oral dose; cited from earlier work
[6] = tested on: human subjects; conditions: in vivo; cited from earlier work

Structure (SMILES)	effect of riluzole on change from baseline in ALSFRS-R scores ([1]; across all treatment groups)	mean change from baseline to study endpoint in ALSFRS-R score ([1]; placebo with riluzole)	human dose equivalent to the lethal rodent dose [2]	human dose equivalent to the lethal rodent dose for a 70 kg individual [2]	dose at which major excitation was displayed [3]	doses at which death occurred [4]	dose at which vomiting occurred [5]	dose shown to cause somnolence in humans [6]	initial single dose not tolerated [6]	maximally tolerated dose for humans (Mirapex product insert) [6]
Nc1nc2ccc(OC(F)(F)F)cc2s1 [riluzole, reference compound]	no effect	−3.6								
CCCN[C@H]1CCc2nc(N)sc2C1 [pramipexole, (6S)-2-amino-4,5,6,7-tetrahydro-6-(propylamino)benzothiazole]			7 to 12 mg/kg	500 to 850 mg	3.5 mg/kg	70 to 105 mg/kg	≥ 0.0007 mg/kg	1.5 mg	greater than 0.20 mg	4.5 mg/day
